Data published in PMC10608878, “Synthesis and Antiproliferative Activity of 2,6-Disubstituted Imidazo[4,5-b]pyridines Prepared by Suzuki Cross Coupling” (Molecules, 2023).
Structures can show the parent of a compound that is named as a salt.

Experiments:
[1] = system: yellow fever virus (YFV); assay: microbe, parasite or virus in culture; assay type: cell-based; settings: Yellow fever virus, Vero C1008, read-out: Antiviral Activity (EC50) YFV VeroE6
[2] = system: Zika virus (ZIKV); assay: Antiviral CPE assay, ZIKV in VeroE6; assay type: cell-based; settings: Zika virus, Vero C1008; VeroE6 host cells
[3] = system: Sindbis virus (SINDV); assay: Antiviral CPE assay, SINDV in VeroE6; assay type: cell-based; settings: Sindbis virus, Vero C1008; VeroE6 host cells
[4] = system: Semliki Forest virus (SFV); assay: Antiviral CPE assay, SFV in VeroE6; assay type: cell-based; settings: Semliki Forest virus, Vero C1008; VeroE6 host cells
[5] = in vitro; settings: African green monkey
[6] = system: Capan-1 pancreatic adenocarcinoma cells; assay: Antiproliferative activity, Capan-1 cells; assay type: cell-based, human; settings: Capan-1, 72 h incubation
Description: (§1) All prepared imidazo[4,5-b]pyridines were tested for their antiproliferative activity against the following cancer cell lines: LN-229—glioblastoma, Capan-1—pancreatic adenocarcinoma, HCT-116—colorectal carcinoma, NCI-H460—lung carcinoma, DND-41—acute lymphoblastic leukemia, HL-60—acute myeloid leukemia, K-562—chronic myeloid leukemia, and Z-138—non-Hodgkin lymphoma cancer cells. An overview of the results is presented in Table 2 as IC50 values (50% inhibitory concentration). An established antitumor drug, etoposide (ETO), was included for comparison.
(§2) For proliferation assays, the human cancer cell lines used in this manuscript, namely Capan-1, HCT-116, NCI-H460, LN-229, HL-60, K-562, and Z-138, were acquired from the American Type Culture Collection (ATCC, Manassas, VA, USA), while the DND-41 cell line was purchased from the Deutsche Sammlung von Mikroorganismen und Zellkulturen (DSMZ Leibniz-Institut, Braunschweig, Germany). Culture media were purchased from Gibco (Gibco Life Technologies, Merelbeke, Belgium) and supplemented with 10% fetal bovine serum (HyClone, Cytiva, Marlborough, MA, USA). Adherent cell lines LN-229, HCT-116, NCI-H460, and Capan-1 cells were seeded in 384-well tissue culture plates (Greiner, Kremsmünster, Austria) at a density between 500 and 1500 cells per well (500 cells per well for Capan-1, 1000 cells per well for LN-229 and HCT-116, and 1500 cells per well for NCI-H460). The cells were treated with seven different concentrations of the test compounds in a 5-fold dilution series ranging from 100 to 0.006 µM after overnight incubation. Suspension cell lines HL-60, K-562, Z-138, and DND-41 were seeded at densities ranging from 2500 to 5500 cells per well (2500 cells per well for HL-60, K-562, and Z-138, and 5500 cells per well for DND-41) in 384-well culture plates containing the test compounds at the same concentration points. All conditions were incubated for 72 h before measuring the cell viability by the CellTiter 96® AQueous Non-Radioactive Cell Proliferation Assay (Promega, Madison, WA, USA) according to the manufacturer’s instructions. After 3 h, absorbance of all conditions was measured at 490 nm using a SpectraMax Plus 384 (Molecular Devices, San Jose, CA, USA), and the OD values were used to calculate the 50% inhibitory concentration (IC50). Compounds were tested in two independent experiments.

[7] = system: HCT-116 colorectal carcinoma cells; assay: Antiproliferative activity, HCT-116 cells; assay type: cell-based, human; settings: HCT-116, 72 h incubation
Description: as §1, §2

[8] = system: LN-229 glioblastoma cells; assay: Antiproliferative activity, LN-229 cells; assay type: cell-based, human; settings: LN-229, 72 h incubation
Description: as §1, §2

[9] = system: NCI-H460 lung carcinoma cells; assay: Antiproliferative activity, NCI-H460 cells; assay type: cell-based, human; settings: NCI-H460, 72 h incubation
Description: as §1, §2

[10] = system: DND-41 acute lymphoblastic leukemia cells; assay: Antiproliferative activity, DND-41 cells; assay type: cell-based, human; settings: DND-41, 72 h incubation
Description: as §1, §2

[11] = system: HL-60 acute myeloid leukemia cells; assay: Antiproliferative activity, HL-60 cells; assay type: cell-based, human; settings: HL-60, 72 h incubation
Description: as §1, §2

[12] = system: K-562 chronic myeloid leukemia cells; assay: Antiproliferative activity, K-562 cells; assay type: cell-based, human; settings: K-562, 72 h incubation
Description: as §1, §2

[13] = system: Z-138 non-Hodgkin lymphoma cells; assay: Antiproliferative activity, Z-138 cells; assay type: cell-based, human; settings: Z-138, 72 h incubation
Description: as §1, §2

[14] = system: respiratory syncytial virus (RSV) A; assay: Antiviral CPE assay, RSV in Hep-2; assay type: cell-based; settings: human respiratory syncytial virus; Hep-2 host cells
[15] = system: influenza A/H1N1 (A/Ned/378/05); assay: Antiviral CPE assay, influenza A/H1N1 in MDCK; assay type: cell-based; settings: Influenza A virus, MDCK host cells
[16] = system: influenza A/H3N2 (A/HK/7/87); assay: Antiviral CPE assay, influenza A/H3N2 in MDCK; assay type: cell-based; settings: Influenza A virus, MDCK host cells
[17] = system: influenza B (B/Ned/537/05); assay: Antiviral CPE assay, influenza B in MDCK; assay type: cell-based; settings: Influenza B virus; MDCK host cells
[18] = in vitro; settings: dog

| Structure (SMILES) | IC50 ([6]; Homo sapiens, CAPAN-1, 72 h) | IC50 ([7]; Homo sapiens, HCT-116, 72 h) | IC50 ([8]; Homo sapiens, LN-229, 72 h) | IC50 ([9]; Homo sapiens, NCI-H460, 72 h) | IC50 ([10]; Homo sapiens, DND41, 72 h) | IC50 ([11]; Homo sapiens, HL-60, 72 h) | IC50 ([12]; Homo sapiens, K562, 72 h) | IC50 ([13]; Homo sapiens, Z-138, 72 h) | also measured |
| --- | --- | --- | --- | --- | --- | --- | --- | --- | --- |
| CCN(CC)CCCC(C)Nc1ccnc2cc(Cl)ccc12 (centres unmarked) [Chloroquine, chloroquine] | – | – | – | – | – | – | – | – | EC50 [1]: > 100000 nM; EC50 [2]: 13.4 µM; EC50 [3]: 8 µM; EC50 [4]: > 100 µM; CC50 [5]: 55.8 µM |
| c1ccc(-c2cnc3[nH]c(-c4ccccc4)nc3c2)cc1 [Compound 12, 2.6-diphenyl-3H-imidazo[4,5-b]pyridine] | 35.3 µM | > 100 µM | > 100 µM | > 100 µM | > 100 µM | 52.3 µM | > 100 µM | 30.1 µM | – |
| COc1ccc(-c2cnc3[nH]c(-c4ccccc4)nc3c2)cc1 [Compound 14, 6-(4-methoxyphenyl)-2-phenyl-3H-imidazo [4,5-b]pyridine] | > 100 µM | > 100 µM | > 100 µM | > 100 µM | > 100 µM | 69.4 µM | > 100 µM | > 100 µM | – |
| O=[N+]([O-])c1ccc(-c2cnc3[nH]c(-c4ccccc4)nc3c2)cc1 [Compound 16, 6-(4-nitrophenyl)-2-phenyl-3H-imidazo[4,5-b]pyridine] | > 100 µM | > 100 µM | > 100 µM | > 100 µM | > 100 µM | 79 µM | > 100 µM | 65.2 µM | – |
| Nc1ccc(-c2cnc3[nH]c(-c4ccccc4)nc3c2)cc1 [Compound 17, 4-(2-phenyl-3H-imidazo [4,5-b]pyridin-6-yl)aniline] | – | > 100 µM | 73 µM | > 100 µM | 76.4 µM | 41.5 µM | 83.2 µM | 40.9 µM | IC50 [6]: 26.6 µM |
| Nc1ccc(-c2cnc3[nH]c(-c4ccccc4)nc3c2)cc1 [Compound 18, 4-(2-phenyl-3H-imidazo [4,5-b]pyridin-6-yl)aniline hydrochloride] | – | – | – | – | – | – | – | – | IC50 [6]: 7.29 µM; IC50 [7]: > 100 µM; IC50 [8]: 63.6 µM; IC50 [9]: > 100 µM; IC50 [10]: 70.9 µM; IC50 [11]: 46.1 µM; IC50 [12]: 84.7 µM; IC50 [13]: 34.8 µM |
| COc1ccc(-c2cnc3c(c2)nc(-c2ccccc2)n3C)cc1 [Compound 20, 6-(4-methoxyphenyl)-3-methyl-2-phenyl-3H-imidazo [4,5-b]pyridine] | > 100 µM | > 100 µM | > 100 µM | > 100 µM | > 100 µM | 62.5 µM | > 100 µM | 86 µM | – |
| Cn1c(-c2ccccc2)nc2cc(-c3ccc(C#N)cc3)cnc21 [Compound 21, 4-(3-methyl-2-phenyl-3H-imidazo [4,5-b]pyridin-6-yl)benzonitrile] | > 100 µM | > 100 µM | > 100 µM | > 100 µM | > 100 µM | 83.1 µM | > 100 µM | 62.8 µM | – |
| Cn1c(-c2ccccc2)nc2cc(-c3ccc([N+](=O)[O-])cc3)cnc21 [Compound 23, 3-methyl-6-(4-nitrophenyl)-2-phenyl-3H-imidazo [4,5-b]pyridine] | > 100 µM | > 100 µM | > 100 µM | > 100 µM | > 100 µM | 89.9 µM | > 100 µM | 72.9 µM | – |
| Cn1c(-c2ccccc2)nc2cc(-c3ccc(N)cc3)cnc21 [Compound 24, 4-(3-methyl-2-phenyl-3H-imidazo [4,5-b]pyridin-6-yl)aniline] | 63 µM | > 100 µM | 55.8 µM | 81.6 µM | 78.5 µM | 36.2 µM | 62.2 µM | – | IC50 [13]: 54.4 µM |
| Cn1c(-c2ccccc2)nc2cc(-c3ccc(N)cc3)cnc21 [Compound 25, 4-(3-methyl-2-phenyl-3H-imidazo [4,5-b]pyridin-6-yl)aniline hydrochloride] | – | – | – | – | – | – | – | – | IC50 [6]: 67.3 µM; IC50 [7]: 56.2 µM; IC50 [8]: 59.1 µM; IC50 [9]: > 100 µM; IC50 [10]: > 100 µM; IC50 [11]: 23.7 µM; IC50 [12]: 39 µM; IC50 [13]: 25.5 µM |
| COc1cc([C@@H]2c3cc4c(cc3[C@@H](O[C@@H]3O[C@@H]5CO[C@@H](C)O[C@H]5[C@H](O)[C@H]3O)[C@H]3COC(=O)[C@H]23)OCO4)cc(OC)c1O [ETO, etoposide, reference compound] | 0.1 µM | 2.55 µM | 1.37 µM | 4.6 µM | 0.6 µM | 0.37 µM | 2.35 µM | 0.05 µM | – |
| COc1c(C)c2c(c(O)c1C/C=C(\C)CCC(=O)O)C(=O)OC2 [Mycoph. acid, mycophenolic acid] | – | – | – | – | – | – | – | – | EC50 [14]: 800 nM; EC50 [1]: 600 nM; EC50 [2]: 25.2 µM; EC50 [3]: > 100 µM; EC50 [4]: > 100 µM; CC50 [5]: > 100 µM |
| CC(N)C12CC3CC(CC(C3)C1)C2 (centres unmarked) [Rimantadin, rimantadine] | – | – | – | – | – | – | – | – | EC50 [15]: 80 nM; EC50 [16]: 0.06 µM; EC50 [17]: > 100000 nM; CC50 [18]: > 100 µM |
| CC(=O)N[C@H]1[C@H]([C@H](O)[C@H](O)CO)OC(C(=O)O)=C[C@@H]1N=C(N)N [Zanamivir, zanamivir] | – | – | – | – | – | – | – | – | EC50 [15]: 300 nM; EC50 [16]: 68.1 µM; EC50 [17]: 500 nM; CC50 [18]: > 100 µM |
